# pIC50: −log10 of the molar value. “Also recorded” adds a separate entry of the source.
# How the values were obtained:
# COX–2 [1] = target: T1, COX–2 (Homo sapiens, UniProt P35354); experiment: PGE2 formation in HCA–7 cells (24 h, LC-MS); assay type: cell-based; settings: for changes of PGE2 formation in HCA–7 cells: non-cytotoxic concentrations, 24 h
# T1 sequence (P35354 18-604): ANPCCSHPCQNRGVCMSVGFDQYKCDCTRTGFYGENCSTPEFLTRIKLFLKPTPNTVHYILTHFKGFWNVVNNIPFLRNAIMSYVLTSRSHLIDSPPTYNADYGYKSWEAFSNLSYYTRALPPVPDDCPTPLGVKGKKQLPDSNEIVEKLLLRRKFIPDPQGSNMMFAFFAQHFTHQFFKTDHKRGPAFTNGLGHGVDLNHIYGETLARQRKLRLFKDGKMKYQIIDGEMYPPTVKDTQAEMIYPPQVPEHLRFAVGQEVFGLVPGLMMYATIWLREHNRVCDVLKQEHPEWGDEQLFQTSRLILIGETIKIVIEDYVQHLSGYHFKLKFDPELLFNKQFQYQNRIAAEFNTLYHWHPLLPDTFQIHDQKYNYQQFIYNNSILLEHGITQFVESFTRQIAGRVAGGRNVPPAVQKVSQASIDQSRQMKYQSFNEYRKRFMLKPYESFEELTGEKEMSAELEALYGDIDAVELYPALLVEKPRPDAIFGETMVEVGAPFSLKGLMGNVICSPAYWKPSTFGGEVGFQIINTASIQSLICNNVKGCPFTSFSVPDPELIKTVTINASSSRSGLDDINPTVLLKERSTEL
# Experimental: (§3) The in vitro assays were performed as described [6, 16, 18] and COX metabolites were quantified by LC-MS [18].
# (§4) HCA–7 cells were incubated with sub-cytotoxic concentrations of the polyphenols dissolved in Tris buffered DMEM medium. Cytotoxicity of the polyphenols was evaluated by the lactate dehydrogenase leakage test (Cyto-Tox-ONE, Promega Mannheim, Germany). After 24 h the supernatant was collected for LC-MS analysis and the cells were harvested to analyze the COX–2 expression by Western Blotting.
# After 24 h, the supernatant was sampled for LC-MS and cells were collected for the COX–2 expression analysis by Western Blotting.
# (§5) GraphPad Prism 5.0 (GraphPad Software, San Diego, USA) was used for data analysis, the fitting of dose response curves and calculation of the IC50 values. Statistical differences were determined by Dunnetts test (LPS vs. other groups).
# [2] = single soy meal containing 3.6 μmol total genistein/kg bw; cited from earlier work
# COX–2 protein [3] = experiment: COX–2 expression in HCA–7 cells (Western Blot); assay type: cell-based, human; settings: 24 h, vs. control
# Experimental: as §4
# [4] = clinical chemistry in plasma (urea, creatinine, AST, ALT, LDH) in LPS induced sepsis in mice; assay type: in vivo, C57BL/6N mice; settings: compound i. p. 100 mg/kg bw 2 h before LPS, 24 h after LPS
# COX–2 protein [5] = settings: cited from earlier work
# COX–2 [6] = target: T1, COX–2; experiment: cell-free COX–2 enzyme assay (PGE2 formation, LC-MS); assay type: biochemical
# Experimental: as §3
# (§6) Primary human monocytes were freshly isolated from human blood. Blood was collected from healthy human subjects after written informed consent was obtained. […] After 24 h, the supernatant was sampled for LC-MS and cells were collected for the COX–2 expression analysis by Western Blotting.
# as §5
# COX–2 [7] = settings: cited from earlier work
# COX–2 [8] = target: T1, COX–2; experiment: PGE2 formation in LPS stimulated primary human monocytes (24 h, LC-MS); assay type: cell-based
# Experimental: as §3, §6, §5
# MCP–1 = experiment: kidney MCP–1 mRNA (qPCR) in LPS induced sepsis in mice; assay type: in vivo, C57BL/6N mice; settings: compound i. p. 100 mg/kg bw 2 h before LPS, 24 h after LPS, vs. LPS group
# Experimental: (§1) Samples were stored at -80°C till further analysis. […] Plasma was generated by centrifugation at 4000 g at 4°C and stored at -80°C till further analysis.
# (§2) Tissue sections were stored in RNA-later immediately after organ retrieval. Total RNA was extracted using the RNeasy mini kit system (Qiagen, Hilden, Germany) and transcribed using Superscript II Reverse transcriptase (Invitrogen). Quantitative (q) PCR was performed on […] (Roche Diagnostics, Penzberg, Germany) using FastStart Sybr-Green chemistry. Gene-specific primers for IL–6 (Quantitec QT00098875, Qiagen) and MCP–1 (Quantitec QT00167832, Qiagen) were used for the gene of interest and HPRT served as house keeping gene for normalization (Quantitec QT00166768, Qigaen). Quantification was carried out using qgene software.
# IL–6 = experiment: kidney IL–6 mRNA (qPCR) in LPS induced sepsis in mice; assay type: in vivo, C57BL/6N mice; settings: compound i. p. 100 mg/kg bw 2 h before LPS, 24 h after LPS
# Experimental: as §1, §2
# [9] = i.p. 50 mg/kg bw, LPS 37.5 mg/kg bw, 28–42 h post LPS administration; cited from earlier work
# COX–2 protein [10] = experiment: COX–2 expression in LPS stimulated primary human monocytes (Western Blot); settings: 24 h, vs. control
# Experimental: as §6
structure (smiles),measurement,setting,value
"O=c1c(-c2ccc(O)cc2)coc2cc(O)cc(O)c12 [Genistein, genistein]",inhibition at 100 µM,"COX–2 [1]; HCA-7, 100 μM, read-out: inhibition, HCA-7 cell line",54%
same,changes of PGE2 formation in HCA–7 cells,COX–2 [1],affected
same,maximal plasma concentrations (free and conjugated form),[2],4 µM
same,"COX-2 Expression, HCA-7 cell line",COX–2 protein [3],100 μM:COX–2 ↓
same,"COX-2 Expression, HCA-7 cell line",COX–2 protein [3]; listed as genistein,decreased COX–2 expression
same,plasma ALT activity,[4],elevated
same,plasma AST activity,[4],elevated
same,"COX–2 (protein) levels, RAW 264.7 cells",COX–2 protein [5],reduced
same,"effect on COX–2 dependent PGE2 formation, cell-free enzyme assay",COX–2 [6],no effect
same,"IC50 (95% CI), COX–2 enzyme assay","COX–2 [6]; calculated based on PGE2, n = 3",no effect (up to 30 μM)
same,"PGE2 formation / levels, RAW 264.7 cells",COX–2 [7],reduced PGE2 formation
same,pIC50,"COX–2 [8]; IC50 (95% CI), primary monocytes, LPS stimulated, calculated based on PGE2, n = 3, 24 h",5.13
"O=c1cc(-c2ccc(O)cc2)oc2cc(O)cc(O)c12 [Apigenin, apigenin]",kidney MCP–1 mRNA levels,MCP–1,did not see an effect
same,"COX–2 (protein) levels, RAW 264.7 cells",COX–2 protein [5],reduced COX–2 levels
same,kidney IL–6 mRNA expression,IL–6; vs. LPS group,did not see an effect
same,mortality,[9],reduced mortality
"Oc1ccc(/C=C/c2cc(O)cc3c2[C@@H](c2cc(O)cc(O)c2)[C@H](c2ccc(O)cc2)O3)cc1 [ε-Viniferin, ε-viniferin]","COX-2 Expression, primary monocytes",COX–2 protein [10],no effect (up to 1 μM)
same,"IC50 (95% CI), HCA-7 cell line","COX–2 [1]; calculated based on PGE2, n = 3, 24 h",no effect (up to 1 μM)
same,changes of PGE2 formation in HCA–7 cells,COX–2 [1],no or only slight
same,"COX-2 Expression, HCA-7 cell line",COX–2 protein [3],no effect (up to 1 μM)
same,plasma ALT activity,[4],elevated; also recorded: moderate elevation
same,plasma AST activity,[4],elevated; also recorded: moderate elevation
same,plasma LDH activity,[4],moderate elevation
same,plasma creatinine level,[4],elevation
same,plasma urea level,[4],elevation
same,"effect on COX–2 dependent PGE2 formation, cell-free enzyme assay",COX–2 [6],dose-dependently decreased; also recorded: inhibited
same,pIC50,"COX–2 [6]; calculated based on PGE2, n = 3, read-out: IC50 (95% CI), COX–2 enzyme assay",4.96
same,further increase of kidney IL–6 mRNA expression in comparison to LPS group,IL–6,28 fold
same,"inhibition, primary monocytes",COX–2 [8]; up to 1 μM,inhibition < 50% (up to 1 μM)
